Experimental data published in patent US6344471B1 (priority 1998, dated 2002).
pIC50, pKi: −log10 of the molar value.

Legend:
[1] = test system: rats having a lesion of the entorhinal cortex; settings: rat, in vivo, ip
acetylcholinesterase = acetylcholinesterase (Rattus norvegicus, UniProt P37136); assay: biochemical
[2] = biological target: high-affinity DFP binding site; set-up: species or system rat
young adult rats = settings: rat, in vivo; cited from earlier work

Chain of acetylcholinesterase (P37136 32-614): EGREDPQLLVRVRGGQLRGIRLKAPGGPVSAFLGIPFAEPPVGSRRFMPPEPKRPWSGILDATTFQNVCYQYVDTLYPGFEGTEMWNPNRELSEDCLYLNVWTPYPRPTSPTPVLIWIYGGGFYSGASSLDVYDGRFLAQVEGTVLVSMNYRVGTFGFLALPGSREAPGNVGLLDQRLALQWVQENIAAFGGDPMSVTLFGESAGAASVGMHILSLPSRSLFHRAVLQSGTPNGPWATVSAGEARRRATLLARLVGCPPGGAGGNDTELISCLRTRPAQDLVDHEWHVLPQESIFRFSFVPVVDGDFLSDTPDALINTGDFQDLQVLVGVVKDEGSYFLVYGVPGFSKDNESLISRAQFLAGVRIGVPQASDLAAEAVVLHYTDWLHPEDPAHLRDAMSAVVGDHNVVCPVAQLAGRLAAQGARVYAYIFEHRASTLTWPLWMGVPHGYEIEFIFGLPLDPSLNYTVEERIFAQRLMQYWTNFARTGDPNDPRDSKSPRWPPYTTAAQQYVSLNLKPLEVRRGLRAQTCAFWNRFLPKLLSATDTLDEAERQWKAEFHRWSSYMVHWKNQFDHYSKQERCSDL

CCCc1c(CC)c(=O)on1C(=O)N1CCCC1 [Example 1, 4-Ethyl-3-propyl-2-(1-pyrrolidinylcarbonyl)-5(2H)-isoxazolone]
antagonism of the learning weakness induced by lesion of the entorhinal cortex [1]: not capable of antagonizing the learning weakness
learning of the platform position [1]: sped up learning of the platform position considerably
performance level on the second day of training [1]: same performance level as the vehicle-treated animals after 5 days of training
pKi (acetylcholinesterase): < 5.00
selectivity (DFP binding site vs acetylcholinesterase) (acetylcholinesterase): > 2000
pIC50 ([2]; read-out: IC50, inhibition of binding of [3H]DFP to the high-affinity binding site): 8.32

Nc1c2c(nc3ccccc13)CCCC2 [tacrine]
improvement of cognitive learning ability (young adult rats): no improvement

COP(=O)(OC)OC=C(Cl)Cl [dichlorvos, reference compound]
binding/affinity to the high-affinity DFP binding site ([3H]DFP competition in vitro) [2]: binds
